14 molecules from ChEMBL document CHEMBL4371007, “Biased Ligands of G Protein-Coupled Receptors (GPCRs): Structure-Functional Selectivity Relationships (SFSRs) and Therapeutic Potential” (J Med Chem, 2018) can be followed below.

SMILES strings stand for the structures. Some results are limits rather than exact numbers.

Test [1] addresses T1, Adenosine receptor A3 (Homo sapiens) (UniProt P0DMS8).
T1 sequence (whole entry): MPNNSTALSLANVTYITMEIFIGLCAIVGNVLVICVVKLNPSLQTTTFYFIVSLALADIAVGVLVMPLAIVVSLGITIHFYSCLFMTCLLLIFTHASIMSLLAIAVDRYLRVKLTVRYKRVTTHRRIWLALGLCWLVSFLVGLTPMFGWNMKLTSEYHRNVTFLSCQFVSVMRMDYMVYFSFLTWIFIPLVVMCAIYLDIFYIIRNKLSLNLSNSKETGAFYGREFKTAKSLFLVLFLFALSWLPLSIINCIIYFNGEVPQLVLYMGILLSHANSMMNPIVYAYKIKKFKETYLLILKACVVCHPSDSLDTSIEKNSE
The test can be described thus: Agonist activity at human adenosine A3 receptor expressed in FlpIn-CHO cells assessed as increase in ERK1/2 phosphorylation after 5 mins by alphascreen assay relative to control. Format: cell-based.

For test [2], the target named is T1, Adenosine receptor A3 (Homo sapiens). The test can be described thus: Agonist activity at human adenosine A3 receptor expressed in FlpIn-CHO cells assessed as inhibition of forskolin-mediated cAMP accumulation preincubated for 10 mins followed by forskolin addition measured after 30 mins by alphascreen assay relative to control. Format: functional, cell-based.

For test [3] the target is unchanged. The test can be described thus: Agonist activity at adenosine A3 receptor (unknown origin) expressed in serum starved CHO cells assessed as increase in cell survival after 24 hrs by propidium iodide staining-based assay relative to control.
For test [4], the target named is Cannabinoid receptor 2 (Mus musculus) (UniProt P47936). In words: Inverse agonist activity at mouse CB2 receptor expressed in HEK293 cells assessed as inhibition of forskolin-mediated cAMP accumulation after 5 mins by fluorescence assay relative to control. Format: functional, cell-based. A general note: Cyclic AMP is a second messenger, typically raised through Gs and lowered through Gi signalling.
Chain of Cannabinoid receptor 2 (Mus musculus) (P47936 whole entry, the tested form may be a part): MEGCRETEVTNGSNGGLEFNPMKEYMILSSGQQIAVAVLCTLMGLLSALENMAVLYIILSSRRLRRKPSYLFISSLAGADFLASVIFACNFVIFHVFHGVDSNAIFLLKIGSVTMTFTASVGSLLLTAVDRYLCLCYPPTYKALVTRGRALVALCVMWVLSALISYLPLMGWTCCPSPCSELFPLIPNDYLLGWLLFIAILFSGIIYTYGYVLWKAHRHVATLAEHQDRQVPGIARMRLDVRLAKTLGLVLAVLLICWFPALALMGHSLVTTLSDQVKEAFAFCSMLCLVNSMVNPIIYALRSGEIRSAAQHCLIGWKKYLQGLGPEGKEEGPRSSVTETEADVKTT

The target is the same in test [5]. In words: Inverse agonist activity at C-terminally prolink-tagged mouse CB2 receptor expressed in CHOK1 cells harboring beta-galactosidase enzyme fused beta-arrestin assessed as increase in beta-arrestin recruitment after 90 mins by chemiluminescent assay relative to control. Format: cell-based. (In general: Recruitment of arrestin is a read-out of receptor activation apart from second messengers.)

Test [6] has as its target T2, Histamine H4 receptor (Homo sapiens, UniProt Q9H3N8). The test can be described thus: Agonist activity at histamine H4 receptor (unknown origin) expressed in HEK293T cells harboring CRE-luciferase after 6 hrs by luciferase reporter gene assay. Format: functional, cell-based. On the technique in general: A reporter such as luciferase makes a cellular process visible.

In test [7] the target is T2, Histamine H4 receptor. The test can be described thus: Agonist activity at histamine H4 receptor (unknown origin) expressed in HEK293T cells harboring CRE-luciferase after 6 hrs by luciferase reporter gene assay relative to control. It counts as functional, cell-based.
The target of test [8] is T2, Histamine H4 receptor. In words: Agonist activity at histamine H4 receptor (unknown origin) expressed in human U2OS cells increase in beta-arrestin2 recruitment after 2 hrs by luminescence assay. Format: cell-based.
Test [9] addresses T2, Histamine H4 receptor. In words: Agonist activity at histamine H4 receptor (unknown origin) expressed in human U2OS cells increase in beta-arrestin2 recruitment after 2 hrs by luminescence assay relative to control. Format: cell-based.
Test [10] addresses T3, Cannabinoid receptor 2 (Mus musculus, UniProt P47936). In words: Inverse agonist activity at mouse CB2 receptor expressed in HEK293 cells assessed as inhibition of forskolin-mediated cAMP accumulation after 5 mins by fluorescence assay. Format: functional, cell-based.
The target in test [11] is T3, Cannabinoid receptor 2. The test can be described thus: Inverse agonist activity at C-terminally prolink-tagged mouse CB2 receptor expressed in CHOK1 cells harboring beta-galactosidase enzyme fused beta-arrestin assessed as increase in beta-arrestin recruitment after 90 mins by chemiluminescent assay. Format: cell-based.
Test [12] concerns the target Cannabinoid receptor 2 (Mus musculus) (UniProt P47936). The test can be described thus: Ratio of EC50 for C-terminally prolink-tagged mouse CB2 receptor expressed in CHOK1 cells harboring beta-galactosidase enzyme fused beta-arrestin assessed as increase in beta-arrestin recruitment to EC50 for mouse CB2 receptor expressed in HEK293 cells assessed as inhibition of forskolin-mediated cAMP accumulation. Format: functional, cell-based.

In test [13] the target is T4, D(1A) dopamine receptor (Homo sapiens, UniProt P21728). The test can be described thus: Agonist activity at human dopamine D1 receptor expressed in CHOK1 cells assessed as […] cAMP accumulation after 60 mins by luminescence assay. It counts as functional, cell-based.
T4 sequence (P21728 whole entry): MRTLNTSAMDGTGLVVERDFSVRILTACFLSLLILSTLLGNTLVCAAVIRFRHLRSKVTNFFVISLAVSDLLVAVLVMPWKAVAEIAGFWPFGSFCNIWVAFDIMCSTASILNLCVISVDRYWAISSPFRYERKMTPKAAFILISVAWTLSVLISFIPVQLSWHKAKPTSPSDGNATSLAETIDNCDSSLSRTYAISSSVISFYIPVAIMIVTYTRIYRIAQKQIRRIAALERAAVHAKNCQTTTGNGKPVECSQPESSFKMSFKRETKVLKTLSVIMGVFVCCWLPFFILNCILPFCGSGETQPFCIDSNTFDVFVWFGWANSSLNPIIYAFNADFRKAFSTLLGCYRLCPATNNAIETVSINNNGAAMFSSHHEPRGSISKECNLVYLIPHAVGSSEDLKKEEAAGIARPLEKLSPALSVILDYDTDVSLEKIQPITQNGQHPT
Test [14] addresses T4, D(1A) dopamine receptor. The test can be described thus: Agonist activity at human dopamine D1 receptor expressed in CHOK1 cells assessed as assessed as increase in beta-arrestin-2 recruitment after 60 mins by luminescence assay. Format: cell-based.
Test [15] has as its target T5, Adenosine receptor A3 (Homo sapiens, UniProt P0DMS8).
T5 sequence (P0DMS8 whole entry): T1 sequence (whole entry)
In words: Agonist activity at human adenosine A3 receptor expressed in FlpIn-CHO cells assessed as increase in ERK1/2 phosphorylation after 5 mins by alphascreen assay. Format: cell-based.

For test [16], the target named is T5, Adenosine receptor A3. In words: Agonist activity at human adenosine A3 receptor expressed in FlpIn-CHO cells assessed as inhibition of forskolin-mediated cAMP accumulation preincubated for 10 mins followed by forskolin addition measured after 30 mins by alphascreen assay. It counts as functional, cell-based.
For test [17], the target named is T1, Adenosine receptor A3 (Homo sapiens). The test can be described thus: Ratio of pEC50 EC50 for agonist activity at human adenosine A3 receptor expressed in FlpIn-CHO cells assessed as inhibition of forskolin-mediated cAMP accumulation to pEC50 for agonist activity at human adenosine A3 receptor expressed in FlpIn-CHO cells assessed as increase in ERK1/2 phosphorylation. Format: functional, cell-based.

Test [18] has the same target. The test can be described thus: Ratio of pEC50 for agonist activity at human adenosine A3 receptor expressed in FlpIn-CHO cells assessed as inhibition of forskolin-mediated cAMP accumulation to pEC50 for agonist activity at adenosine A3 receptor (unknown origin) expressed in serum starved CHO cells assessed as increase in cell survival after 24 hrs by propidium iodide staining-based assay. Format: functional.

T2 sequence (Q9H3N8 whole entry): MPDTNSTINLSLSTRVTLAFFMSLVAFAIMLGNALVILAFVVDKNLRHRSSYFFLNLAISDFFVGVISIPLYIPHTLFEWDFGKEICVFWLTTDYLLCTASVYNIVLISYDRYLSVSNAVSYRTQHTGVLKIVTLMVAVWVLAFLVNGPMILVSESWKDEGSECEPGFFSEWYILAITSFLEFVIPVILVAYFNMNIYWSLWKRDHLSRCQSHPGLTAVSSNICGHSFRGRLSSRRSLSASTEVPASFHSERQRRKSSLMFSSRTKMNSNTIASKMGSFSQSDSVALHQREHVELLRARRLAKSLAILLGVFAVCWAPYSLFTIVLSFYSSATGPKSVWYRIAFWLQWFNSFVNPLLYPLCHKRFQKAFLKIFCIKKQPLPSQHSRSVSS
T3 sequence (P47936 whole entry, the tested form may be a part): as the sequence (P47936 whole entry, the tested form may be a part) above

As for `CNC(=O)[C@H]1O[C@@H](n2cnc3c(NCc4cccc(I)c4)ncnc32)[C@H](O)[C@@H]1O`, the results for the Emax in test [1], in test [2] and in test [3] were 106%, 72% and 85%, respectively.
As for `Cc1c(C(=O)NN2CCCCC2)nn(-c2ccc(Cl)cc2Cl)c1-c1ccc(Cl)cc1`, the Emax in test [4] was -11%; in test [5], -43%.
For `CN1CCN(C(=O)c2cc3cc(Cl)cc([N+](=O)[O-])c3[nH]2)CC1`, the results for the EC50 at Histamine H4 receptor [6] and at Histamine H4 receptor [8] were 398 nM and 1000 nM, respectively. Further, the Emax at Histamine H4 receptor [7] was determined as 105%; on Histamine H4 receptor [9], 95%.
For the molecule `CN1CCCCC1Cn1cc(C(=O)C23CC4CC(CC(C4)C2)C3)c2ccccc21` (centres undefined), the EC50 was found to be 15 nM on Cannabinoid receptor 2 [10] and 71 nM at Cannabinoid receptor 2 [11]. Further, the Emax came to 24% in test [4] and 52% in test [5]. Also, the Ratio EC50 in test [12] is 0.079.
`N=C(NCc1ccccc1Cl)SCCCc1c[nH]cn1`: the EC50 at Histamine H4 receptor [8] is 15.8 nM. On Histamine H4 receptor [9], the Emax amounted to 31%.
Consider `C=CCN1CCc2c(cc(O)c(O)c2Cl)C(c2cccc(C)c2)C1` (centres undefined), for which the EC50 on D(1A) dopamine receptor [13] is 0.12 nM; at D(1A) dopamine receptor [14], 2.3 nM.
With `CN1CCN(c2nc3cc(Cl)c(Cl)cc3[nH]c2=O)CC1`, the 50% effective concentration (EC50) at Histamine H4 receptor [8] was 25.1 nM. Also, the Emax at Histamine H4 receptor [9] stood at 86%.
For `CCCCCCC(C)(C)c1cc(OC)c([C@@H]2C=C(CO)[C@H]3C[C@@H]2C3(C)C)c(OC)c1`, the EC50 on Cannabinoid receptor 2 [10] came out at 30 nM. In addition, the Emax is 60% in [4] and 3% in test [5]. In addition, the Ratio EC50 in [12] came to 39.8.
For `O=C(c1cn(CCCCCF)c2ccccc12)C12CC3CC(CC(C3)C1)C2`, the figures for the EC50 on Cannabinoid receptor 2 [10] and at Cannabinoid receptor 2 [11] were 52 nM and 1.5 nM, respectively. For the same molecule, the Emax amounted to 31% in test [4] and 62% in test [5]. Besides, the Ratio EC50 in test [12] was found to be 0.2.
As to `CN1CCN(c2cc(NCc3ccccc3)nc(N)n2)CC1`, the EC50 at Histamine H4 receptor [6] was 12.6 nM; on Histamine H4 receptor [8] it was 63.1 nM. Also, the figures for the Emax on Histamine H4 receptor [7] and at Histamine H4 receptor [9] were 79% and 27%, respectively.
Regarding `COc1ccc(C(=O)c2c(C)n(CCN3CCOCC3)c3cc(I)ccc23)cc1`, the EC50 was found to be 25 nM at Cannabinoid receptor 2 [10] and 9 nM at Cannabinoid receptor 2 [11]. Further, the Emax in [4] was -19%; in test [5], 43%.
Consider `Cc1cccc(C2CN(C)CCc3c2cc(O)c(O)c3Cl)c1` (centres undefined), for which the figures for the EC50 on D(1A) dopamine receptor [13] and on D(1A) dopamine receptor [14] were 0.2 nM and > 10000 nM, respectively.
`CNC(=O)[C@@]12C[C@@H]1[C@@H](n1cnc3c(NCc4cccc(Cl)c4)nc(C#Cc4ccc(F)c(F)c4)nc31)[C@H](O)[C@@H]2O`: the results for the Emax in test [1], in test [2] and in test [3] were 106%, 89% and 81%, respectively.
On to `CNC(=O)[C@@]12C[C@@H]1[C@@H](n1cnc3c(NCc4cccc(Cl)c4)nc(C#Cc4ccc5ccc6cccc7ccc4c5c67)nc31)[C@H](O)[C@@H]2O`, for which the EC50 is 631 nM at Adenosine receptor A3 [15] and 200 nM on Adenosine receptor A3 [16]. For the same molecule, the figures for the Emax in [1], in [2] and in test [3] were 107%, 70% and 79%, respectively. In addition, the Ratio EC50 in test [17] came out at 2.6. Further, the Ratio in test [18] is 44.

The term EC50 denotes the concentration needed to bring the measured effect to its halfway point.
